Measurements: ChEMBL document CHEMBL3779857, “Aspidofractinine and Eburnane Alkaloids from a North Borneo Kopsia. Ring-Contracted, Additional Ring-Fused, and Paucidactine-Type Aspidofractinine Alkaloids from K. pauciflora” (J Nat Prod, 2016)

Experiments:
Type in all cases: functional, cell-based
KB = assay: Cytotoxicity against human vincristine-sensitive KB cells assessed as cell viability after 72 hrs by MTT assay
[1] = Cytotoxicity against human KB/VJ300 cells assessed as cell viability after 72 hrs by MTT assay; conditions: KB/VJ300, 72 h
MCF7 = assay: Cytotoxicity against human MCF7 cells assessed as cell viability after 72 hrs by MTT assay; conditions: MCF7, 72 h
[2] = Cytotoxicity against human HCT116 cells assessed as cell viability after 72 hrs by MTT assay; conditions: HCT-116, 72 h
[3] = Cytotoxicity against human KB/VJ300 cells assessed as cell viability after 72 hrs by MTT assay in presence of 0.121 uM vincristine; conditions: KB/VJ300, 72 h
A549 = assay: Cytotoxicity against human A549 cells assessed as cell viability after 72 hrs by MTT assay; conditions: A549, 72 h
[4] = Cytotoxicity against human PC3 cells assessed as cell viability after 72 hrs by MTT assay; conditions: PC-3, 72 h

| Compound | IC50 (KB) | IC50 [1] | IC50 (MCF7) | IC50 [2] | IC50 [3] | IC50 (A549) | IC50 [4] |
| --- | --- | --- | --- | --- | --- | --- | --- |
| C[C@H]1O[C@@H]2C[C@]13CCCN1CC[C@]4(C(=O)c5ccccc5N24)[C@H]13 | > 25 µg/mL | > 25 µg/mL | – | – | – | – | – |
| CC[C@@]12CCCN3CCc4c(n(c5ccccc45)[C@H](c4ccc5c(c4)N[C@@]46CC[C@]7(CCCN8CC[C@]54[C@@H]87)C[C@H]6C(=O)OC)C1)[C@H]32 | 24.2 µM | 37.3 µM | 15.7 µM | 12.3 µM | 7.8 µM | 33.1 µM | 11.5 µM |
| COC(=O)[C@@H]1C[C@]23CC[C@@]14Nc1ccccc1[C@@]41CCN(C=C(C=O)C2)[C@@H]31 | > 25 µg/mL | > 25 µg/mL | – | – | – | – | – |
| O=C1OC2CN3CCC[C@]45CC[C@@]6(Nc7ccccc7[C@@]26[C@@H]34)[C@@H]1C5 (stereo partly specified) | > 25 µg/mL | > 25 µg/mL | – | – | – | – | – |
| COC(=O)[C@@H]1C[C@@]23CCCN4CC[C@@]5(c6ccc([C@@H]7C[C@@]8([C@@H](C)O)CCCN9CCc%10c(n7c7ccccc%107)[C@H]98)cc6N[C@]15CC2)[C@@H]43 | 28.8 µM | > 25 µg/mL | 22.3 µM | 25.1 µM | 13.6 µM | > 25 µg/mL | 15.3 µM |
| COC(=O)[C@@H]1C[C@]23CC[C@@]14Nc1ccccc1[C@@]41CCN(C(=O)C2)[C@@H]31 | > 25 µg/mL | > 25 µg/mL | – | – | – | – | – |
| COC(=O)[C@@H]1C[C@]23CC[C@@]14Nc1ccccc1[C@@]41CCN(C4=CC(=O)C[C@H]4C2)[C@@H]31 | > 25 µg/mL | > 25 µg/mL | – | – | – | – | – |
| CC[C@@]12CCCN3CCc4c(n(c5ccccc45)[C@H](c4ccc5c(c4)N[C@@]46CC[C@]7(CCCN8CC[C@]54[C@@H]87)C[C@H]6C(=O)O)C1)[C@H]32 | > 25 µg/mL | > 25 µg/mL | > 25 µg/mL | > 25 µg/mL | > 25 µg/mL | > 25 µg/mL | > 25 µg/mL |
| COc1ccc(CCN(C)CCCC(C#N)(c2ccc(OC)c(OC)c2)C(C)C)cc1OC (stereo unspecified) | > 25 µg/mL | – | – | – | – | – | – |
| CCO[C@H]1C[C@@]2([C@@H](C)O)CCCN3CCc4c(n1c1ccccc41)[C@H]32 | > 25 µg/mL | > 25 µg/mL | – | – | – | – | – |
| C[C@@H](O)[C@]12C=Cn3c4c(c5ccccc53)CCN(CCC1)[C@@H]42 | > 25 µg/mL | > 25 µg/mL | – | – | – | – | – |
| COC(=O)N1c2c(ccc3c2OCO3)[C@@]23C4CN5CCC[C@]6(CC[C@]12[C@](O)(C6)OC4=O)[C@H]53 (stereo partly specified) | > 25 µg/mL | > 25 µg/mL | – | – | – | – | – |
| CC[C@]1(O)C[C@H]2CN(CCc3c([nH]c4ccccc34)[C@@](C(=O)OC)(c3cc4c(cc3OC)N(C=O)[C@H]3[C@@](O)(C(=O)OC)[C@H](OC(C)=O)[C@]5(CC)C=CCN6CC[C@]43[C@@H]65)C2)C1 [VINCRISTINE] | 0.0033 µM | 7.5 µM | – | – | – | – | – |
| CC(=O)[C@@]12CCCN3CCc4c(n(c5ccccc45)[C@@H](O)C1)[C@H]32 | > 25 µg/mL | > 25 µg/mL | – | – | – | – | – |
| COC(=O)N1c2c(OC)cccc2[C@]23C4C(=O)[C@H]5C[C@@]6(CCCN(C4=O)[C@@H]62)CC[C@]513 (stereo partly specified) | > 25 µg/mL | > 25 µg/mL | – | – | – | – | – |
| O=C1OC2C(=O)N3CCC[C@]45CC[C@@]6(Nc7ccccc7[C@@]26[C@@H]34)[C@@H]1C5 (stereo partly specified) | > 25 µg/mL | > 25 µg/mL | – | – | – | – | – |
